Assay results as given in patent US4292317A, “1,4-Dihydro-quinoline-3-carboxylic acid derivatives, process for their preparation and compositions containing them” (Laboratorie Roger Bellon, priority 1977, dated 1981).
≈ marks a conversion by molar mass, not a printed value. Read-outs that look alike come from different tables or passages of the source.

Tests used:
Format in all cases: cell-based
Pr. vulgaris 12-53 = assay: M.I.C. in vitro, nutrient agar dilution; conditions: Proteus vulgaris, 1253, 18 h; Table 2; Pr. vulgaris 12-53 (Gram negative); read-out: M.I.C.
Method: (§1) After sterilisation at 120° C., the pH was 6.8.
(§2) The minimum inhibitory concentrations (M.I.C.) were determined by dilution of the test compounds in this mixture, the concentration ranging from 0.05 to 100 μg/cm^3 in a geometric progression with a factor of 2.
(§3) The inoculation of the dishes was carried out by means of a multiple inoculator with 10^-3 dilutions of 18 hour old broth cultures.
(§4) The dishes were placed in an oven at 37° C. and the readings were taken afer an incubation time of 18 hours. The M.I.C. was taken as the lowest concentration which inhibited a culture.

Pr. morganii A.236 = assay: M.I.C. in vitro, nutrient agar dilution; conditions: Morganella morganii, 18 h; Table 2; Pr. morganii A.236 (Gram negative); read-out: M.I.C.
Method: as §1, §2, §3, §4

Staph. 209 P = assay: M.I.C. in vitro, nutrient agar dilution; conditions: 18 h; Table 2; Staph. 209 P (Gram positive); read-out: M.I.C.
Method: as §1, §2, §3, §4

Arizona 6.211 = assay: M.I.C. in vitro, nutrient agar dilution; conditions: 18 h; Table 2; Arizona 6.211 (Gram negative); read-out: M.I.C.
Method: as §1, §2, §3, §4

B. subtilis = assay: M.I.C. in vitro, nutrient agar dilution; conditions: Bacillus subtilis, 18 h; Table 2; B. subtilis (Gram positive); read-out: M.I.C.
Method: as §1, §2, §3, §4

Serratia = assay: M.I.C. in vitro, nutrient agar dilution; conditions: 18 h, Table 2, Berratia (Gram negative), read-out: M.I.C.
Method: as §1, §2, §3, §4

Ps. aeruginosa A.22 = assay: M.I.C. in vitro, nutrient agar dilution; conditions: Pseudomonas aeruginosa, 18 h; Table 2; Ps. aeruginosa A.22 (Gram negative); read-out: M.I.C.
Method: as §1, §2, §3, §4

S. oranienburg 1066 = assay: M.I.C. in vitro, nutrient agar dilution; conditions: Salmonella enterica, 18 h; Table 2; S. oranienburg 1066 (Gram negative); read-out: M.I.C.
Method: as §1, §2, §3, §4

Ps. aeruginosa 72.345 = assay: M.I.C. in vitro, nutrient agar dilution; conditions: Pseudomonas aeruginosa, 18 h; Table 2; Ps. aeruginosa 72.345 (Gram negative); read-out: M.I.C.
Method: as §1, §2, §3, §4

Pr. mirabilis Nig = assay: M.I.C. in vitro, nutrient agar dilution; conditions: Proteus mirabilis, 18 h; Table 2; Pr. mirabilis Nig (Gram negative); read-out: M.I.C.
Method: as §1, §2, §3, §4

Staph. 9.144 = assay: M.I.C. in vitro, nutrient agar dilution; conditions: 18 h; Table 2; Staph. 9.144 (Gram positive); read-out: M.I.C.
Method: as §1, §2, §3, §4

Providentia 0223 = assay: M.I.C. in vitro, nutrient agar dilution; conditions: 18 h; Table 2; Providentia 0223 (Gram negative); read-out: M.I.C.
Method: as §1, §2, §3, §4

Esch. coli 111 B4 = assay: M.I.C. in vitro, nutrient agar dilution; conditions: Escherichia coli, 18 h; Table 2; Esch. coli 111 B4 (Gram negative)
Method: as §1, §2, §3, §4

Klebs. pneum. 10.031 = assay: M.I.C. in vitro, nutrient agar dilution; conditions: 18 h; Table 2; Klebs. pneum. 10.031 (Gram negative); read-out: M.I.C.
Method: as §1, §2, §3, §4

Bord. bronchis. 4.617 = assay: M.I.C. in vitro, nutrient agar dilution; conditions: 18 h; Table 2; Bord. bronchis. 4.617 (Gram negative); read-out: M.I.C.
Method: as §1, §2, §3, §4

Strepto D.M. 19 = assay: M.I.C. in vitro, nutrient agar dilution; conditions: 18 h; Table 2; Strepto D.M. 19 (Gram positive); read-out: M.I.C.
Method: as §1, §2, §3, §4

Esch. coli 95 I.S.M. = assay: M.I.C. in vitro, nutrient agar dilution; conditions: Escherichia coli, 18 h; Table 2; Esch. coli 95 I.S.M. (Gram negative); read-out: M.I.C.
Method: as §1, §2, §3, §4

Sh. sonnei I.P.S. = assay: M.I.C. in vitro, nutrient agar dilution; conditions: Shigella sonnei, 18 h
Method: as §1, §2, §3, §4

S. enteritidis Danysz = assay: M.I.C. in vitro, nutrient agar dilution; conditions: Salmonella enterica, 18 h; Table 2; S. enteritidis Danysz (Gram negative); read-out: M.I.C.
Method: as §1, §2, §3, §4

Strepto A 561 = assay: M.I.C. in vitro, nutrient agar dilution; conditions: 18 h; Table 2; Strepto A 561 (Gram positive)
Method: as §1, §2, §3, §4

Esch. coli 54.127 O.M.S. = assay: M.I.C. in vitro, nutrient agar dilution; conditions: Escherichia coli, 18 h; Table 2; Esch. coli 54.127 O.M.S. (Gram negative); read-out: M.I.C.
Method: as §1, §2, §3, §4

Salm. typhi 0901 = assay: microbe, parasite or virus in culture; conditions: Salmonella enterica, 18 h; Table 2; Salm. typhi 0901 (Gram negative)
Method: as §1, §2, §3, §4

[1] = Table 2, Sh. sonnei I.P.S. (Gram negative), read-out: M.I.C.

SMILES	MIC (Pr. vulgaris 12-53) [µg/mL]	MIC (Pr. morganii A.236) [µg/mL]	MIC (Staph. 209 P) [µg/mL]	MIC (Arizona 6.211) [µg/mL]	MIC (B. subtilis) [µg/mL]	MIC (Serratia) [µg/mL]	MIC (Ps. aeruginosa A.22) [µg/mL]	MIC (S. oranienburg 1066) [µg/mL]	MIC (Ps. aeruginosa 72.345) [µg/mL]	MIC (Pr. mirabilis Nig) [µg/mL]	MIC (Staph. 9.144) [µg/mL]	MIC (Providentia 0223) [µg/mL]	MIC (Esch. coli 111 B4) [µg/mL]	MIC (Klebs. pneum. 10.031) [µg/mL]	MIC (Bord. bronchis. 4.617) [µg/mL]	MIC (Strepto D.M. 19) [µg/mL]	MIC (Esch. coli 95 I.S.M.) [µg/mL]	MIC (S. enteritidis Danysz) [µg/mL]	MIC (Strepto A 561) [µg/mL]	MIC (Esch. coli 54.127 O.M.S.) [µg/mL]	further results
CCn1cc(C(=O)O)c(=O)c2cc(Cl)c(N3CCN(C)CC3)cc21 [Example 1, 6-Chloro-1-ethyl-7-(4-methylpiperazinyl)-4-oxo-1,4-dihydro-quinoline-3-carboxylic acid]	0.4 to 1.6 (≈ 1.14 to 4.57 µM)	0.2 to 0.8 (≈ 0.572 to 2.29 µM)	0.4 (≈ 1.14 µM)	0.2 to 0.8 (≈ 0.572 to 2.29 µM)	0.2 to 0.4 (≈ 0.572 to 1.14 µM)	1.6 to 3.1 (≈ 4.57 to 8.86 µM)	3.1 to 6.2 (≈ 8.86 to 17.7 µM)	12.5 to 25 (≈ 35.7 to 71.5 µM)	3.1 to 6.2 (≈ 8.86 to 17.7 µM)	0.4 to 0.8 (≈ 1.14 to 2.29 µM)	0.4 to 1.6 (≈ 1.14 to 4.57 µM)	3.1 to 12.5 (≈ 8.86 to 35.7 µM)	0.2 to 0.4 (≈ 0.572 to 1.14 µM)	0.2 (≈ 0.572 µM)	1.6 to 6.2 (≈ 4.57 to 17.7 µM)	1.6 to 3.1 (≈ 4.57 to 8.86 µM)	0.4 to 0.8 (≈ 1.14 to 2.29 µM)	0.4 to 1.6 (≈ 1.14 to 4.57 µM)	12.5 to 50 (≈ 35.7 to 143 µM)	0.2 to 0.4 (≈ 0.572 to 1.14 µM)	MIC (Sh. sonnei I.P.S.): 0.2 to 0.85 µg/mL (≈ 0.572 to 2.43 µM); MIC (Salm. typhi 0901): 0.4 to 1.6 µg/mL (≈ 1.14 to 4.57 µM)
CCn1cc(C(=O)O)c(=O)c2cc(Cl)c(N3CCNCC3)cc21 [Example 3, 6-Chloro-1-ethyl-4-oxo-7-piperazinyl-1,4-dihydro-quinoline-3-carboxylic acid]	0.2 (≈ 0.596 µM)	0.2 (≈ 0.596 µM)	0.4 to 0.8 (≈ 1.19 to 2.38 µM)	0.2 (≈ 0.596 µM)	0.2 to 0.4 (≈ 0.596 to 1.19 µM)	3.1 to 12.5 (≈ 9.23 to 37.2 µM)	1.6 to 3.1 (≈ 4.76 to 9.23 µM)	6.2 to 12.5 (≈ 18.5 to 37.2 µM)	1.6 to 3.1 (≈ 4.76 to 9.23 µM)	0.2 (≈ 0.596 µM)	0.4 (≈ 1.19 µM)	1.6 to 3.1 (≈ 4.76 to 9.23 µM)	0.2 (≈ 0.596 µM)	0.2 (≈ 0.596 µM)	0.2 to 12.5 (≈ 0.596 to 37.2 µM)	1.6 to 3.1 (≈ 4.76 to 9.23 µM)	0.2 (≈ 0.596 µM)	0.2 (≈ 0.596 µM)	6.2 (≈ 18.5 µM)	0.2 (≈ 0.596 µM)	MIC (Sh. sonnei I.P.S.; [1]): 0.2 µg/mL (≈ 0.596 µM); MIC (Salm. typhi 0901): 0.2 µg/mL (≈ 0.596 µM)
CCn1cc(C(=O)O)c(=O)c2cc(Cl)c(N3CCN(CCO)CC3)cc21 [Example 4, 6-chloro-1-ethyl-7-[4-(β-hydroxyethyl)-piperazinyl]-4-oxo-1,4-dihydro-quinoline-3-carboxylic acid]	1.6 (≈ 4.21 µM)	1.6 (≈ 4.21 µM)	0.4 (≈ 1.05 µM)	1.6 (≈ 4.21 µM)	6.2 (≈ 16.3 µM)	25 (≈ 65.8 µM)	12.5 (≈ 32.9 µM)	25 (≈ 65.8 µM)	12.5 (≈ 32.9 µM)	3.1 (≈ 8.16 µM)	0.4 (≈ 1.05 µM)	25 (≈ 65.8 µM)	3.1 (≈ 8.16 µM)	0.4 (≈ 1.05 µM)	6.2 (≈ 16.3 µM)	6.2 (≈ 16.3 µM)	1.6 (≈ 4.21 µM)	3.1 (≈ 8.16 µM)	6.2 (≈ 16.3 µM)	3.1 (≈ 8.16 µM)	MIC (Sh. sonnei I.P.S.; [1]): 0.8 µg/mL (≈ 2.11 µM); MIC (Salm. typhi 0901): 3.1 µg/mL (≈ 8.16 µM)
CCn1cc(C(=O)O)c(=O)c2cc(Cl)c(N3CCN(Cc4ccccc4)CC3)cc21 [Example 5, 7-(4-Benzylpiperazinyl)-6-chloro-1-ethyl-4-oxo-1,4-dihydro-quinoline-3-carboxylic acid]	6.2 (≈ 14.6 µM)	3.1 (≈ 7.28 µM)	0.2 (≈ 0.47 µM)	3.1 (≈ 7.28 µM)	0.4 (≈ 0.939 µM)	3.1 (≈ 7.28 µM)	25 (≈ 58.7 µM)	100 (≈ 235 µM)	25 (≈ 58.7 µM)	6.2 (≈ 14.6 µM)	0.8 (≈ 1.88 µM)	50 (≈ 117 µM)	3.1 (≈ 7.28 µM)	0.4 (≈ 0.939 µM)	12.5 (≈ 29.3 µM)	6.2 (≈ 14.6 µM)	3.1 (≈ 7.28 µM)	6.2 (≈ 14.6 µM)	6.2 (≈ 14.6 µM)	6.2 (≈ 14.6 µM)	MIC (Sh. sonnei I.P.S.; [1]): 1.6 µg/mL (≈ 3.76 µM); MIC (Salm. typhi 0901): 6.2 µg/mL (≈ 14.6 µM)
CCn1cc(C(=O)O)c(=O)c2cc(Cl)c(N3CCOCC3)cc21 [Example 7, 6-Chloro-1-ethyl-7-morpholino-4-oxo-1,4-dihydro-quinoline-3-carboxylic acid]	0.8 (≈ 2.38 µM)	0.8 (≈ 2.38 µM)	0.2 (≈ 0.594 µM)	1.6 (≈ 4.75 µM)	0.2 (≈ 0.594 µM)	0.8 (≈ 2.38 µM)	12.5 (≈ 37.1 µM)	> 100	6.2 (≈ 18.4 µM)	1.6 (≈ 4.75 µM)	0.4 (≈ 1.19 µM)	> 100	3.1 (≈ 9.2 µM)	0.2 (≈ 0.594 µM)	12.5 (≈ 37.1 µM)	50 (≈ 148 µM)	1.6 (≈ 4.75 µM)	3.1 (≈ 9.2 µM)	100 (≈ 297 µM)	3.1 (≈ 9.2 µM)	MIC (Sh. sonnei I.P.S.; [1]): 0.8 µg/mL (≈ 2.38 µM); MIC (Salm. typhi 0901): 3.1 µg/mL (≈ 9.2 µM)
